Tests used:
Italian ryegrass = experiment: Test Example 5: herbicidal effect by foliage application, plastic box (Table 20, symbol K); assay type: in vivo, Italian ryegrass (Lolium multiflorum); settings: foliage application, AAH 320 g/ha, three weeks after application
Method in brief: (§1)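 Post-emergence foliar test in sterilized diluvial soil. Compound applied as water-diluted emulsion at a predetermined rate to 14-day-old plants; evaluation at three weeks.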

Japanese bulrush = experiment: Test Example 1: herbicidal activity, application before weed generation under submerged conditions (Table 16, symbol B); assay type: in vivo, Japanese bulrush (Schoenoplectus juncoides)
Method in brief: (§2)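 Submerged Wagner pots (alluvial soil, 4 cm water) sown with weed seeds and planted with 2.5-leaf rice seedlings; emulsifiable concentrate diluted in water applied to water surface on sowing day. Held in greenhouse at 25-30 °C; injury scored 0-5 by herbicidal rate after three weeks.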

rice flat sedge = experiment: Test Example 3: herbicidal effect by foliage application, Wagner pot (Table 18, symbol E); assay type: in vivo, rice flat sedge (Cyperus iria)
Method in brief: (§3)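 Plants were sown in alluvial soil held under 0.1–0.5 cm standing water and grown 14 days in a greenhouse at 25–30 °C. An emulsifiable formulation, water-diluted to the set dose, was then sprayed onto the foliage, and effects were scored three weeks later using previously defined criteria.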

late watergrass = experiment: Test Example 1: herbicidal activity, application before weed generation under submerged conditions (Table 16, symbol A); assay type: in vivo, late watergrass (Echinochloa oryzicola)
Method in brief: as §2

oval-leafed pondweed = experiment: Test Example 1: herbicidal activity, application before weed generation under submerged conditions (Table 16, symbol C); assay type: in vivo, oval-leafed pondweed (Monochoria vaginalis)
Method in brief: as §2

lambsquarters [1] = experiment: Test Example 5: herbicidal effect by foliage application, plastic box (Table 20, symbol O); assay type: in vivo, lambsquarters (Chenopodium album); settings: foliage application, three weeks after application
Method in brief: as §1

windgrass = experiment: Test Example 5: herbicidal effect by foliage application, plastic box (Table 20, symbol L); assay type: in vivo, windgrass (Apera spica-venti); settings: foliage application, AAH 320 g/ha, three weeks after application
Method in brief: as §1

redroot pigweed [2] = experiment: Test Example 5: herbicidal effect by foliage application, plastic box (Table 20, symbol N); assay type: in vivo, redroot pigweed (Amaranthus retroflexus); settings: foliage application, three weeks after application
Method in brief: as §1

chickweed = experiment: Test Example 5: herbicidal effect by foliage application, plastic box (Table 20, symbol P); assay type: in vivo, common chickweed (Stellaria media); settings: foliage application, AAH 320 g/ha, three weeks after application
Method in brief: as §1

persian speedwell = experiment: Test Example 5: herbicidal effect by foliage application, plastic box (Table 20, symbol R); assay type: in vivo, Persian speedwell (Veronica persica); settings: foliage application, AAH 320 g/ha, three weeks after application
Method in brief: as §1

Chinese sprangletop = experiment: Test Example 3: herbicidal effect by foliage application, Wagner pot (Table 18, symbol D); assay type: in vivo, chinese sprangletop (Leptochloa chinensis)
Method in brief: as §3

wild oat = experiment: Test Example 5: herbicidal effect by foliage application, plastic box (Table 20, symbol I); assay type: in vivo, wild oat (Avena fatua); settings: foliage application, AAH 320 g/ha, three weeks after application
Method in brief: as §1

southern crabgrass [3] = experiment: Test Example 5: herbicidal effect by foliage application, plastic box (Table 20, symbol F); assay type: in vivo, southern crabgrass (Digitaria ciliaris); settings: foliage application, three weeks after application
Method in brief: as §1

green foxtail [4] = experiment: Test Example 5: herbicidal effect by foliage application, plastic box (Table 20, symbol G); assay type: in vivo, green foxtail (Setaria viridis); settings: foliage application, three weeks after application
Method in brief: as §1

velvetleaf [5] = experiment: Test Example 5: herbicidal effect by foliage application, plastic box (Table 20, symbol M); assay type: in vivo, velvetleaf (Abutilon theophrasti); settings: foliage application, three weeks after application
Method in brief: as §1

barnyard grass [6] = experiment: Test Example 5: herbicidal effect by foliage application, plastic box (Table 20, symbol H); assay type: in vivo, barnyard grass (Echinochloa crus-galli); settings: foliage application, three weeks after application
Method in brief: as §1

barnyard grass [7] = experiment: Test Example 3: herbicidal effect by foliage application, Wagner pot (Table 18, symbol H); assay type: in vivo, barnyard grass (Echinochloa crus-galli)
Method in brief: as §3

blackgrass = experiment: Test Example 5: herbicidal effect by foliage application, plastic box (Table 20, symbol J); assay type: in vivo, blackgrass (Alopecurus myosuroides); settings: foliage application, AAH 320 g/ha, three weeks after application
Method in brief: as §1

southern crabgrass [8] = experiment: Test Example 4: herbicidal effect by soil treatment (Table 19, symbol F); assay type: in vivo, southern crabgrass (Digitaria ciliaris)
Method in brief: (§4)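 Scoring uses the grading scale of an earlier test, three weeks post-application. Treatment consists of spraying a diluted emulsion formulation across the surface of sterilized diluvial soil in which seeds are buried near 1.5 cm deep; boxes are kept in a greenhouse between 25° C. and 30° C.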

velvetleaf [9] = experiment: Test Example 4: herbicidal effect by soil treatment (Table 19, symbol M); assay type: in vivo, velvetleaf (Abutilon theophrasti)
Method in brief: as §4

barnyard grass [10] = experiment: Test Example 4: herbicidal effect by soil treatment (Table 19, symbol H); assay type: in vivo, barnyard grass (Echinochloa crus-galli)
Method in brief: as §4

green foxtail [11] = experiment: Test Example 4: herbicidal effect by soil treatment (Table 19, symbol G); assay type: in vivo, green foxtail (Setaria viridis)
Method in brief: as §4

redroot pigweed [12] = experiment: Test Example 4: herbicidal effect by soil treatment (Table 19, symbol N); assay type: in vivo, redroot pigweed (Amaranthus retroflexus)
Method in brief: as §4

lambsquarters [13] = experiment: Test Example 4: herbicidal effect by soil treatment (Table 19, symbol O); assay type: in vivo, lambsquarters (Chenopodium album)
Method in brief: as §4

[14] = amount of applied herbicide 403 g/ha
[15] = amount of applied herbicide 320 g/ha

| Compound | Herbicidal effect, B: Japanese bulrush (Japanese bulrush; [15]) | herbicidal effect, F: southern crabgrass (southern crabgrass [8]; [15]) | herbicidal effect on E: rice flat sedge (rice flat sedge; [15]) | Herbicidal effect, A: late watergrass (late watergrass; [15]) | Herbicidal effect, C: oval-leafed pondweed (oval-leafed pondweed; [15]) | O: lambsquarters, herbicidal effect grade (lambsquarters [1]; 320 g/ha) | N: redroot pigweed, herbicidal effect grade (redroot pigweed [2]; 320 g/ha) | herbicidal effect, M: velvetleaf (velvetleaf [9]; [15]) | herbicidal effect, H: barnyard grass (barnyard grass [10]; [15]) | herbicidal effect on D: Chinese sprangletop (Chinese sprangletop; [15]) | F: southern crabgrass, herbicidal effect grade (southern crabgrass [3]; 320 g/ha) | herbicidal effect, G: green foxtail (green foxtail [11]; [15]) | G: green foxtail, herbicidal effect grade (green foxtail [4]; 320 g/ha) | herbicidal effect, N: redroot pigweed (redroot pigweed [12]; [15]) | M: velvetleaf, herbicidal effect grade (velvetleaf [5]; 320 g/ha) | H: barnyard grass, herbicidal effect grade (barnyard grass [6]; 320 g/ha) | herbicidal effect on H: barnyard grass (barnyard grass [7]; [15]) | herbicidal effect, O: lambsquarters (lambsquarters [13]; [15]) | further results |
| --- | --- | --- | --- | --- | --- | --- | --- | --- | --- | --- | --- | --- | --- | --- | --- | --- | --- | --- | --- |
| COc1cn(C)nc1-c1sc2ccccc2c1-c1c(O)c(C)nn(C)c1=O [1-105] | – | – | – | – | – | – | – | – | – | – | – | – | – | – | – | – | – | – | K: Italian ryegrass, herbicidal effect (Italian ryegrass): 0 (Herbicidal rate of 5% or less (almost no effect)); Herbicidal effect on B: Japanese bulrush (grade 0-5) (Japanese bulrush; 320 g/ha applied herbicide): 3 (Herbicidal rate of 40% or more and less than 70%); herbicidal effect on E (rice flat sedge), rating 0-5 (rice flat sedge; 320 g/ha): 4 (Herbicidal rate of 70% or more and less than 90%); Herbicidal effect on A: late watergrass (grade 0-5) (late watergrass; 320 g/ha applied herbicide): 3 (Herbicidal rate of 40% or more and less than 70%); Herbicidal effect on C: oval-leafed pondweed (grade 0-5) (oval-leafed pondweed; 320 g/ha applied herbicide): 2 (Herbicidal rate of 20% or more and less than 40%); O: lambsquarters, herbicidal effect (lambsquarters [1]; AAH 320 g/ha): 4 (Herbicidal rate of 70% or more and less than 90%); L: windgrass, herbicidal effect (windgrass): 4 (Herbicidal rate of 70% or more and less than 90%); N: redroot pigweed, herbicidal effect (redroot pigweed [2]; AAH 320 g/ha): 5 (Herbicidal rate of 90% or more (almost completely withered)); P: chickweed, herbicidal effect (chickweed): 5 (Herbicidal rate of 90% or more (almost completely withered)); R: persian speedwell, herbicidal effect (persian speedwell): 4 (Herbicidal rate of 70% or more and less than 90%); herbicidal effect on D (Chinese sprangletop), rating 0-5 (Chinese sprangletop; 320 g/ha): 3 (Herbicidal rate of 40% or more and less than 70%); I: wild oat, herbicidal effect (wild oat): 3 (Herbicidal rate of 40% or more and less than 70%); F: southern crabgrass, herbicidal effect (southern crabgrass [3]; AAH 320 g/ha): 3 (Herbicidal rate of 40% or more and less than 70%); G: green foxtail, herbicidal effect (green foxtail [4]; AAH 320 g/ha): 3 (Herbicidal rate of 40% or more and less than 70%); M: velvetleaf, herbicidal effect (velvetleaf [5]; AAH 320 g/ha): 3 (Herbicidal rate of 40% or more and less than 70%); H: barnyard grass, herbicidal effect (barnyard grass [6]; AAH 320 g/ha): 1 (Herbicidal rate of 5% or more and less than 20%); herbicidal effect on H (barnyard grass), rating 0-5 (barnyard grass [7]; 320 g/ha): 4 (Herbicidal rate of 70% or more and less than 90%); J: blackgrass, herbicidal effect (blackgrass): 0 (Herbicidal rate of 5% or less (almost no effect)) |
| CC[S+]([O-])c1cccc(-c2sc3ccc(F)cc3c2-c2c(O)c(C)nn(C)c2=O)c1 (stereo not drawn) [2-460] | – | – | – | – | – | – | – | – | – | – | – | – | – | – | – | – | – | – | Herbicidal effect, B: Japanese bulrush (Japanese bulrush; [14]): 0 (Herbicidal rate of 5% or less (almost no effect)); herbicidal effect, F: southern crabgrass (southern crabgrass [8]; [14]): 0 (Herbicidal rate of 5% or less (almost no effect)); herbicidal effect on E: rice flat sedge (rice flat sedge; [14]): 0 (Herbicidal rate of 5% or less (almost no effect)); Herbicidal effect, A: late watergrass (late watergrass; [14]): 3 (Herbicidal rate of 40% or more and less than 70%); Herbicidal effect, C: oval-leafed pondweed (oval-leafed pondweed; [14]): 0 (Herbicidal rate of 5% or less (almost no effect)); O: lambsquarters, herbicidal effect grade (lambsquarters [1]; 403 g/ha): 3 (Herbicidal rate of 40% or more and less than 70%); N: redroot pigweed, herbicidal effect grade (redroot pigweed [2]; 403 g/ha): 3 (Herbicidal rate of 40% or more and less than 70%); herbicidal effect, M: velvetleaf (velvetleaf [9]; [14]): 0 (Herbicidal rate of 5% or less (almost no effect)); herbicidal effect, H: barnyard grass (barnyard grass [10]; [14]): 0 (Herbicidal rate of 5% or less (almost no effect)); herbicidal effect on D: Chinese sprangletop (Chinese sprangletop; [14]): 0 (Herbicidal rate of 5% or less (almost no effect)); F: southern crabgrass, herbicidal effect grade (southern crabgrass [3]; 403 g/ha): 0 (Herbicidal rate of 5% or less (almost no effect)); herbicidal effect, G: green foxtail (green foxtail [11]; [14]): 0 (Herbicidal rate of 5% or less (almost no effect)); G: green foxtail, herbicidal effect grade (green foxtail [4]; 403 g/ha): 2 (Herbicidal rate of 20% or more and less than 40%); herbicidal effect, N: redroot pigweed (redroot pigweed [12]; [14]): 3 (Herbicidal rate of 40% or more and less than 70%); M: velvetleaf, herbicidal effect grade (velvetleaf [5]; 403 g/ha): 3 (Herbicidal rate of 40% or more and less than 70%); H: barnyard grass, herbicidal effect grade (barnyard grass [6]; 403 g/ha): 3 (Herbicidal rate of 40% or more and less than 70%); herbicidal effect on H: barnyard grass (barnyard grass [7]; [14]): 4 (Herbicidal rate of 70% or more and less than 90%); herbicidal effect, O: lambsquarters (lambsquarters [13]; [14]): 3 (Herbicidal rate of 40% or more and less than 70%) |
| Cc1nn(C)c(=O)c(-c2c(-c3ccoc3)sc3ccc(F)cc23)c1O [2-461] | 0 (Herbicidal rate of 5% or less (almost no effect)) | 0 (Herbicidal rate of 5% or less (almost no effect)) | 4 (Herbicidal rate of 70% or more and less than 90%) | 3 (Herbicidal rate of 40% or more and less than 70%) | 0 (Herbicidal rate of 5% or less (almost no effect)) | 3 (Herbicidal rate of 40% or more and less than 70%) | 4 (Herbicidal rate of 70% or more and less than 90%) | 0 (Herbicidal rate of 5% or less (almost no effect)) | 0 (Herbicidal rate of 5% or less (almost no effect)) | 0 (Herbicidal rate of 5% or less (almost no effect)) | 2 (Herbicidal rate of 20% or more and less than 40%) | 0 (Herbicidal rate of 5% or less (almost no effect)) | 3 (Herbicidal rate of 40% or more and less than 70%) | 2 (Herbicidal rate of 20% or more and less than 40%) | 4 (Herbicidal rate of 70% or more and less than 90%) | 3 (Herbicidal rate of 40% or more and less than 70%) | 4 (Herbicidal rate of 70% or more and less than 90%) | 1 (Herbicidal rate of 5% or more and less than 20%) | – |
| C#CCSc1ccc(-c2sc3ccc(F)cc3c2-c2c(O)c(C)nn(C)c2=O)cc1 [2-465] | 2 (Herbicidal rate of 20% or more and less than 40%) | 0 (Herbicidal rate of 5% or less (almost no effect)) | 5 (Herbicidal rate of 90% or more (almost completely withered)) | 4 (Herbicidal rate of 70% or more and less than 90%) | 3 (Herbicidal rate of 40% or more and less than 70%) | 5 (Herbicidal rate of 90% or more (almost completely withered)) | 5 (Herbicidal rate of 90% or more (almost completely withered)) | 0 (Herbicidal rate of 5% or less (almost no effect)) | 0 (Herbicidal rate of 5% or less (almost no effect)) | 3 (Herbicidal rate of 40% or more and less than 70%) | 2 (Herbicidal rate of 20% or more and less than 40%) | 0 (Herbicidal rate of 5% or less (almost no effect)) | 5 (Herbicidal rate of 90% or more (almost completely withered)) | 5 (Herbicidal rate of 90% or more (almost completely withered)) | 4 (Herbicidal rate of 70% or more and less than 90%) | 5 (Herbicidal rate of 90% or more (almost completely withered)) | 5 (Herbicidal rate of 90% or more (almost completely withered)) | 4 (Herbicidal rate of 70% or more and less than 90%) | – |

From patent US20230085307A1, “PYRIDAZINONE COMPOUND AND HERBICIDE” (NISSAN CHEMICAL CORPORATION, priority 2019, published 2023)
